Paper PMC3266667 (Frontiers in Pharmacology, 2012)
Read-outs that look alike come from different tables or passages of the source.

Biological target: hERG K+ channels (Homo sapiens, UniProt Q12809)
[1] = Patchliner, CHO-hERG cells, physiological temperature

Chain of hERG K+ channels (Q12809 whole entry): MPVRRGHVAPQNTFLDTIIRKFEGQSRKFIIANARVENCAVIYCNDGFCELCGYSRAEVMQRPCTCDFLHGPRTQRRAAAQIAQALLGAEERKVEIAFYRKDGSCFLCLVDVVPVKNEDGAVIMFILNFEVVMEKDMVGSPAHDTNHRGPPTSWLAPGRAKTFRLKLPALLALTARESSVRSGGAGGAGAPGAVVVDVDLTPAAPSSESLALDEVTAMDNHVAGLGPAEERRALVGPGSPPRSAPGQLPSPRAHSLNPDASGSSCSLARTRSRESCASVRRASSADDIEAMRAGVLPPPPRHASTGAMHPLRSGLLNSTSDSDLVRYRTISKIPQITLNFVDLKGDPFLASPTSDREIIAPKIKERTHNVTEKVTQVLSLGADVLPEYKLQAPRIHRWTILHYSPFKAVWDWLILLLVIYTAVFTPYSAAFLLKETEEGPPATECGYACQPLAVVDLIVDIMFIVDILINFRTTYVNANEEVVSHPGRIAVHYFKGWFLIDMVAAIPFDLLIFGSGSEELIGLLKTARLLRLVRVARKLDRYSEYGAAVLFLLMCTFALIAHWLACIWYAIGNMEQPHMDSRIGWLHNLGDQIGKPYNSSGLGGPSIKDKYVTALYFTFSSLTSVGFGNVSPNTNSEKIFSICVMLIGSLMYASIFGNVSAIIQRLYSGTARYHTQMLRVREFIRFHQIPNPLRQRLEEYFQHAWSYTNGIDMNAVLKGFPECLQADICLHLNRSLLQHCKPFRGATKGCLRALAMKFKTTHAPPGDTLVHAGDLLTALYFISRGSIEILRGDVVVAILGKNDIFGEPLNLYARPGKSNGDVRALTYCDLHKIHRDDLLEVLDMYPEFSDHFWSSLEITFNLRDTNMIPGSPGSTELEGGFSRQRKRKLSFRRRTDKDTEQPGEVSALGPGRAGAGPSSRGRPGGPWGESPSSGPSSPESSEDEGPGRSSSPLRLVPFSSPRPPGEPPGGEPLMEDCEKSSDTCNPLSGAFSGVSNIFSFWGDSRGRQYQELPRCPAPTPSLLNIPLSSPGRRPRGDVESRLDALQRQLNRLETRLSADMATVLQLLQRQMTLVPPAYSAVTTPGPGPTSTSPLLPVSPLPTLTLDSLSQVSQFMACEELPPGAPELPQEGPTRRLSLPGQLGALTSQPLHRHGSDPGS

SMILES | effect on the hERG current (in words) | effect on the hERG current (in words) [1] | also measured
Cc1cc2c(s1)Nc1ccccc1N=C2N1CCN(C)CC1 [Olanzapine] | intermediate effect on the hERG current | – | –
CC(C)Cc1ccc(C(C)C(=O)O)cc1 (centres unmarked) [Ibuprofen] | – | did not affect the hERG current up to the highest concentration tested | –
CC(C)NCC(O)c1ccc(NS(C)(=O)=O)cc1 (racemic) [D,L-Sotalol] | intermediate effect on the hERG current | – | –
C[C@H](CS)C(=O)N1CCC[C@H]1C(=O)O [Captopril] | – | did not affect the hERG current up to the highest concentration tested | –
COc1cc(N)c(Cl)cc1C(=O)NC1CCN(CCCOc2ccc(F)cc2)CC1OC (centres unmarked) [Cisapride] | – | – | effect on the hERG current (in words) (human): IC50 values in the low and mid-nanomolar range
